US8809304B2, “Amine compound and use thereof for medical purposes” (Mitsubishi Tanabe Pharma Corporation, priority 2005, dated 2014)
Counter-ions that a name gives are not always drawn.

System: peripheral blood lymphocyte count
Test: Evaluation of peripheral blood lymphocyte count-decreasing effect in mice
Type: in vivo
Conditions: male BALB/cAnNCrj mice, intraperitoneally administered, 24 hr after administration
In the case of `CCCCCCCOc1ccc(CCC(N)(CO)CO)cc1C.Cl` [comparison compound 1-7, 2-amino-2-[2-(4-heptyloxy-3-methylphenyl)ethyl]propane-1,3-diol Hydrochloride, reference compound], the “mouse peripheral blood lymphocyte count-decreasing effect, ED50 value (dose necessary for 50% reduction of the lymphocyte count of vehicle group as 100%)” value is reported as 0.64 mg/kg body weight. With `CCCCCCCOc1ccc(CCC(N)(CO)CO)cc1C(F)(F)F.Cl` [compound 1-3, 2-amino-2-[2-(4-heptyloxy-3-trifluoromethylphenyl)ethyl]propane-1,3-diol Hydrochloride] the “mouse peripheral blood lymphocyte count-decreasing effect, ED50 value (dose necessary for 50% reduction of the lymphocyte count of vehicle group as 100%)” value was 0.04 mg/kg body weight. For `CCCCCCCOc1ccc(CCC(C)(N)CO)cc1C(F)(F)F.Cl` (stereo not drawn) [compound 13-6, 2-amino-4-(4-heptyloxy-3-trifluoromethylphenyl)-2-methylbutanol Hydrochloride], the “mouse peripheral blood lymphocyte count-decreasing effect, ED50 value (dose necessary for 50% reduction of the lymphocyte count of vehicle group as 100%)” value was 0.02 mg/kg body weight. In the case of `CCCCCCCOc1ccc(CC[C@@](C)(N)CO)cc1C(F)(F)F.Cl` [compound 15-3, (R)-2-amino-4-(4-heptyloxy-3-trifluoromethylphenyl)-2-methylbutanol Hydrochloride], the “mouse peripheral blood lymphocyte count-decreasing effect, ED50 value (dose necessary for 50% reduction of the lymphocyte count of vehicle group as 100%)” value is reported as 0.02 mg/kg body weight. In the case of `CCCCCCCOc1ccc(/C=C/C(N)(CO)CO)cc1C(F)(F)F` [compound 28-6, (E)-2-amino-2-[2-(4-heptyloxy-3-trifluoromethylphenyl)vinyl]propane-1,3-diol Hydrochloride], the “mouse peripheral blood lymphocyte count-decreasing effect, ED50 value (dose necessary for 50% reduction of the lymphocyte count of vehicle group as 100%)” value is reported as 0.03 mg/kg body weight.

System: not listed separately
Test: Effect on heart rate in rat telemetry
Type: in vivo, Sprague-Dawley (IGS) rats
Conditions: orally administered, up to the dose of 30 mg/kg body weight, measured from 24 hr before to 72 hr after administration
Experimental: Effect on Heart Rate in Rat Telemetry
Male Sprague-Dawley (IGS) rats were anesthetized by intraperitoneal administration of Nembutal (manufactured by DAINIPPON PHARMACEUTICAL CO., LTD.), a pressure sensor connected to a telemetry transmitter (TL11M2-C50-PTX, manufactured by Data Sciences International) was inserted into the abdominal artery, and the transmitter was subcutaneously dwelled in the abdomen. The data of blood pressure and heart rate were recorded by an analysis soft (Dataquest A.R.T., Data Science) via a receiver (RPC-1, manufactured by Data Sciences International). When 10 days to 2 weeks elapsed from the surgery, recovery of heart rate circadian rhythm was confirmed, and the rats were subjected to the experiment. The compound of the present invention was suspended in 0.5% hydroxypropylmethylcellulose (manufactured by Shin-Etsu Chemical Co., Ltd.) and orally administered. The heart rate was measured from 24 hr before the administration to 72 hr after the administration.
With `CCCCCCCOc1ccc(CCC(N)(CO)CO)cc1C(F)(F)F.Cl` [compound 1-3, 2-amino-2-[2-(4-heptyloxy-3-trifluoromethylphenyl)ethyl]propane-1,3-diol Hydrochloride] the “effect on heart rate of the rat” value was “did not affect the heart rate”.
